We go through 17 compounds from US5466858A, “Method of producing straight-chain acrylonitrile dimers” (priority 1993, dated 1995).

Setting [1] is: in water, ionic strength 0 to 0.1 mole/liter, 25° C.

Read-outs that look alike come from different tables or passages of the source.

With `O=C(O)c1c(Cl)cccc1Cl` [2,6-dichlorobenzoic acid], under setting [1], the pKa is reported as 1.82.

As to `O=C(O)c1c(F)cccc1F` [2,6-difluorobenzoic acid], the pKa (water) worked out at 2.31.

Under setting [1], `O=C(O)c1ccc(Cl)c(Cl)c1` [3,4-dichlorobenzoic acid] returned a pKa of 3.64.

With `Nc1ccccc1C(=O)O` [Anthranilic acid], the pKa under setting [1] was determined as 4.79.

For `CNc1ccccc1C(=O)O` [N-methylanthranilic acid], under setting [1], the pKa is given as 5.34.

As to `O=C(O)c1cccc(Cl)c1` [m-chlorobenzoic acid], the pKa under setting [1] was found to be 3.82.

`N#Cc1cccc(C(=O)O)c1` [m-cyanobenzoic acid]: the pKa under setting [1] was found to be 3.60.

Compound `Cc1cccc(C(=O)O)c1` [m-methylbenzoic acid, reference compound] yielded a pKa (water) of 4.27.

`O=C(O)c1cccc(C(F)(F)F)c1` [m-trifluoromethylbenzoic acid] showed a pKa (water) of 3.77.

The compound `CC(=O)c1ccccc1C(=O)O` [o-acetylbenzoic acid] gave a pKa (water) of 3.79. This pKa and that of the compound before are within 0.2 log units of each other.

In the case of `O=C(O)c1ccccc1Br` [o-bromobenzoic acid], the pKa (water) was 2.85.

In the case of `O=C(O)c1ccccc1Cl` [o-chlorobenzoic acid], the pKa (water) is recorded as 2.92. The pKa values of the last two compounds are within 0.2 log units of each other.

Take `O=C(O)c1ccccc1F` [o-fluorobenzoic acid]: under setting [1], the pKa amounted to 3.27.

Turning to `COc1ccccc1C(=O)O` [o-methoxybenzoic acid], under setting [1], the pKa is listed as 4.09.

Consider `O=C(O)c1ccccc1-c1ccccc1` [o-phenylbenzoic acid], for which the pKa (water) is reported as 3.46.

On to `CC(=O)c1ccc(C(=O)O)cc1` [p-acetylbenzoic acid], for which the pKa (water) amounted to 3.70.

In turn, `O=C(O)c1c(F)c(F)c(F)c(F)c1F` [pentafluorobenzoic acid, reference compound] returned a pKa (water) of 1.48.
